Test system: female CD-1 mice
Assay: Acute toxicity study, intraperitoneal, single dose
Conditions: in vivo
Description: This study was carried out with the purpose of investigating the toxicity of a single dose of the listed compounds administered to ICR (CD-1) female mice. According to the current OECD guideline no.
The mice used were all female and were treated by intraperitoneal injection administration. The animals were observed individually and regularly for the first 4 hours and within 24 hours after administration, and then twice a day for the whole observation period. As soon as the animals were stabilized, observations at the weekend were undertaken once only during the day.
The evaluated parameters included the survival, body weight development, variations in skin and fur, changes in ocular, conjunctival and buccal mucous membranes, changes in activities of the respiratory, circulatory, autonomous and central nervous systems, changes in somatomotor activity and in behaviour.
Any appearance of tremors, convulsions, salivation, diarrhea, lethargy, drowsiness and coma were attentively and regularly monitored. At the end of the observation period, a post-mortem was carried out on all the animals.

SMILES	toxic effect (Example 23)	toxic effect (mouse)
CC1(C)CC(=O)C(C2COCCN2O)C(=O)C1 (stereo not shown) [(4), 2-(4-hydroxymorpholin-3-yl)-5,5-dimethylcyclohexane-1,3-dione]	no toxic effect	–
O=c1oc2ccccc2c(O)c1C1COCCN1O (stereo not shown) [(10), 4-hydroxy-3-(4-hydroxymorpholin-3-yl)-2H-chromen-2-one]	no toxic effect	–
O=C1CC(c2ccccc2)CC(=O)C1C1COCCN1O (stereo not shown) [(5), 2-(4-hydroxymorpholin-3-yl)-5-phenylcyclohexane-1,3-dione]	–	no toxic effect
O=C1c2ccccc2C(=O)C1C1COCCN1O (stereo not shown) [(8), 2-(4-hydroxymorpholin-3-yl)-2H-indene-1,3-dione]	no toxic effect	–

Reference: patent EP2345639A1, “Cyclic hydroxylamine derivatives, their preparation and use as antioxidants” (ABIOGEN PHARMA S.p.A., priority 2009, dated 2011)
